Results reported in US5985908A, “MCBI analogs of CC-1065 and the duocarmycins” (The Scripps Research Institute, priority 1998, dated 1999).
“Also recorded” adds a separate entry of the source.

Assays:
[1] = system: w794 DNA (SV40 DNA fragment, 144 bp); test: DNA alkylation, thermally-induced strand cleavage of w794 DNA; type: biochemical; conditions: for selectivity and efficiency of DNA alkylation, unnatural enantiomers compared: 72 hours, pairwise comparison; for selectivity and efficiency of DNA alkylation, natural enantiomers compared: 25° C., 24 hours, 254 vs 2, 266 vs 1; for concentration of detectable DNA alkylation, natural enantiomers: w794, 25° C., 24 hours (FIG. 17); for concentration of detectable DNA alkylation, unnatural enantiomers: w794, 37° C., 72 hours (FIG. 13)
Description: FIG. 13 illustrates thermally-induced strand cleavage of double-stranded DNA (SV40 DNA fragment, 144 bp, nucleotide no. 5238-138, clone w794) after 72 hours incubation of agent-DNA at 37° C. followed by removal of unbound agent and 30 minutes incubation at 100° C.; 8% denaturing PAGE and autoradiography. Lane 1, control DNA; lanes 2-4, (-)-MCBI-TMI (254, 1×10^-5 to 1×10^-7 M); lanes 5-7, (-)-duocarmycin SA (2, 1×10^-5 to 1×10^-7 M); lanes 8-11, Sanger G, C, A and T reactions; lanes 12-14, (-)-CC-1065 (1, 1×10^-5 to 1×10^-7 M); lanes 15-17, (-)-MCBI-CDPI2 (266, 1×10^-5 to 1×10^-7 M); lanes 18-20, (-)-MCBI-CDPI1 (262, 1×10^-5 to 1×10^-7 M); lanes 21-23 (-)-MCBI-indole2 (258, 1×10^-5 to 1×10^-7 M).
As indicated, the DNA-agent incubation was conducted at 37° C. for 24 or 48 hours, followed by removal of unbound agent and 30 minutes incubation at 100° C.; 8% denaturing PAGE and autoradiography.
FIG. 17 illustrates thermally-induced strand cleavage of double-stranded DNA (SV40 DNA fragment, 144 bp, nucleotide no. 5238-138, clone w794) after 24 hours incubation of agent-DNA at 25° C. followed by removal of unbound agent and 30 minutes incubation at 100° C; 8% denaturing PAGE and autoradiography. Lane 1, control DNA; lanes 2-4, (+)-duocarmycin SA (2, 1×10^-5 to 1×10^-7 M); lanes 5-7, (+)-MCBI-TMI (254, 1×10^-5 to 1×10^-7 M); lanes 8-11, Sanger G, C, A and T reactions; lanes 12-14, (+)-CC-1065 (1, 1×10^-5 to 1×10^-7 M); lanes 15-17, (+)-MCBI-indole2 (258, 1×10^-5 to 1×10^-7 M); lanes 18-20, (+)-MCBI-CDPI2 (266, 1×10^-5 to 1×10^-7 M).
(§1) The DNA alkylation properties of the agents were examined within four 150 base-pair segments of duplex DNA for which comparative results are available for related agents. Four clones of phage M13mp10 were selected for study and contain the SV40 nucleosomal DNA inserts w794 (nucleotide no. 5238-138) and its complement w836 (nucleotide no. 5189-91) and c988 (nucleotide no. 4359-4210) and its complement c820 (nucleotide no. 4201-4356). The alkylation site identification and the assessment of the relative selectivity among the available sites were obtained by thermally-induced strand cleavage of the singly 5'end-labeled duplex DNA after exposure to the agents. Following treatment of the end-labeled duplex DNA with a range of agent concentrations, the unbound agent was removed by EtOH precipitation of the DNA. Redissolution of the DNA in aqueous buffer, thermolysis (100° C., 30 minutes) to induce strand cleavage at the sites of DNA alkylation, denaturing high resolution polyacrylamide gel electrophoresis (PAGE) adjacent to Sanger dideoxynucleotide sequencing standards, and autoradiography led to identification of the DNA cleavage and alkylation sites. The full details of this procedure have been disclosed and discussed elsewhere (10). The DNA alkylation reaction selectivities observed under the incubation conditions of 25° C. (24 hours) for the agents detailed herein have proven identical to the alkylation selectivities observed with shorter or extended reaction periods or when the reactions were conducted at different temperatures (37 or 4° C., 0.5-7 days). As discussed below, the rates and efficiencies but not final relative efficiencies of DNA alkylation were altered by changing the reaction temperatures.

[2] = system: duplex DNA (w794, w836, c988, c820); test: DNA alkylation selectivity within four 150 base-pair segments of duplex DNA; type: biochemical, SV40
Excerpt: as §1

[3] = system: L1210; test: In vitro cytotoxic activity; type: cell-based; conditions: for enantiomer distinction (in words): natural vs unnatural enantiomer; for cytotoxic activity of seco precursor vs cyclopropane containing agent: seco precursors; for cytotoxic potency of natural enantiomer relative to unnatural enantiomer: fold, natural more potent than unnatural
[4] = pH 3; cited from earlier work
[5] = Solvolysis reactivity (UV), aqueous buffer-CH3OH; type: physicochemical
Description: The solvolysis was followed spectrophotometrically by UV with the disappearance of the long-wavelength absorption band of the MCBI chromophore ([…]) and with the appearance of a short-wavelength absorption band (266 nm) attributable to seco-N-BOC-MCBI (FIG. 9).
N-BOC-MCBI (238, 0.1 mg) was dissolved in CH3 OH (1.5 mL) and mixed with pH 3 aqueous buffer (1.5 mL). The buffer contained 4:1:20 (v:v:v) 0.1 M citric acid, 0.2 M Na2 HPO4, and H2 O, respectively. The solvolysis solution was sealed and kept at 25° C. protected from light. The UV spectrum was measured at regular intervals every 2 hours during the first day, every 12 hours for another week, and every 24 hours for an additional week. The decrease in the long-wavelength absorption at 324 nm and the increase in the short-wavelength absorption at 266 nm were monitored, FIG. 1.
Similarly, MCBI (240, 0.1 mg) was dissolved in CH3 OH (1.5 mL) and mixed with […] (1.5 mL). The solvolysis solution was sealed and stirred at 25° C. in the dark. The UV spectrum was recorded every 24 hours for two months. The decrease in the long-wavelength absorption at 340 nm and the increase in absorption at 268 nm were monitored, FIG. 1.

Q: With `COC(=O)c1cc2c([nH]1)C(=O)C=C1N(C(=O)c3cc4cc(OC)c(OC)c(OC)c4[nH]3)CC3CC123` (single isomer, unassigned) [ent-(-)-duocarmycin SA, reference compound] as the molecule, how does the “selectivity and efficiency of DNA alkylation, unnatural enantiomers compared” value ([1]; 37° C.) read?
A: slightly more effective

Q: Which results are given for `COc1c(O)c2c(c3cc(C(=O)N4CCc5c4c(O)c(OC)c4[nH]c(C(=O)N6C[C@H]7C[C@@]78C6=CC(=O)c6[nH]cc(C)c68)cc54)[nH]c13)CCN2C(N)=O` [(+)-CC-1065, reference compound]?
A: AT-rich alkylation selectivity, size of site, natural enantiomers [2]: 5 base-pair; selectivity and efficiency of DNA alkylation, natural enantiomers compared [1]: essentially indistinguishable; concentration of detectable DNA alkylation, natural enantiomers [1]: 10^-7 M

Q: Which results are given for `COc1ccc2c(c1)[C@@]13C[C@@H]1CN(C(=O)c1cc4c5c(ccc4[nH]1)N(C(=O)c1cc4c6c(ccc4[nH]1)N(C(N)=O)CC6)CC5)C3=CC2=O` [(+)-MCBI-CDPI2]?
A: selectivity and efficiency of DNA alkylation, natural enantiomers compared [1]: essentially indistinguishable; concentration of detectable DNA alkylation, natural enantiomers [1]: 10^-7 M

Q: With `COc1ccc2c(c1)[C@@]13C[C@@H]1CN(C(=O)c1cc4cc(NC(=O)c5cc6ccccc6[nH]5)ccc4[nH]1)C3=CC2=O` [(+)-MCBI-indole2] as the molecule, how does the “concentration of detectable DNA alkylation, natural enantiomers” value [1] read?
A: 10^-7 M

Q: With `COc1ccc2c(c1)[C@@]13C[C@@H]1CN(C(=O)OC(C)(C)C)C3=CC2=O` [(+)-N-BOC-MCBI, N-(tert-Butyloxycarbonyl)-7-methoxy-1,2,9,9a-tetrahydrocyclopropa[c]benz[e]indol-4-one] as the molecule, how does the “relative efficiency of DNA alkylation, natural/unnatural enantiomer” value ([1]; (+)-N-BOC-MCBI/ent-(-)-N-BOC-MCBI, 37° C.) read?
A: 1-2 ×

Q: What about the “enantiomer distinction (in words)” value [3] of the same molecule?
A: more potent activity

Q: For `COc1ccc2c(c1)[C@]13C[C@H]1CN(C(=O)c1cc4c5c(ccc4[nH]1)N(C(N)=O)CC5)C3=CC2=O` [(-)-MCBI-CDPI1], which “selectivity and efficiency of DNA alkylation, unnatural enantiomers compared” value ([1]; 37° C.) is on record?
A: nearly indistinguishable

Q: With `COc1ccc2c(c1)[C@]13C[C@H]1CN(C(=O)c1cc4c5c(ccc4[nH]1)N(C(=O)c1cc4c6c(ccc4[nH]1)N(C(N)=O)CC6)CC5)C3=CC2=O` [(-)-MCBI-CDPI2] as the molecule, how does the “selectivity and efficiency of DNA alkylation, unnatural enantiomers compared” value ([1]; 37° C.) read?
A: nearly indistinguishable

Q: Which “selectivity and efficiency of DNA alkylation, unnatural enantiomers compared” value ([1]; 37° C.) does the source give for `COc1ccc2c(c1)[C@]13C[C@H]1CN(C(=O)c1cc4cc(OC)c(OC)c(OC)c4[nH]1)C3=CC2=O` [(-)-MCBI-TMI] here?
A: nearly indistinguishable

Q: For `COc1ccc2c(c1)[C@]13C[C@H]1CN(C(=O)c1cc4cc(NC(=O)c5cc6ccccc6[nH]5)ccc4[nH]1)C3=CC2=O` [(-)-MCBI-indole2], which “selectivity and efficiency of DNA alkylation, unnatural enantiomers compared” value ([1]; 37° C.) is on record?
A: nearly indistinguishable

Q: Which results are given for `O=C1C=C2NCC3CC23c2ccccc21` (stereo not shown) [CBI, 1,2,9,9a-tetrahydrocyclopropa[c]benz[e]indol-4-one]?
A: solvolysis half-life t1/2 of comparison agents [4]: 38.8 days; solvolysis rate constant k of comparison agents [4]: 2.07e-07 s⁻¹

Q: With `NC(=O)N1CCc2c1ccc1[nH]c(C(=O)N3CCc4c3ccc3[nH]c(C(=O)N5CC6CC67C5=CC(=O)c5ccccc57)cc43)cc21` (stereo not shown) [CBI-CDPI2, reference compound] as the molecule, how does the “enantiomer distinction (in words)” value [3] read?
A: comparable potencies

Q: With `COc1ccc2c(O)cc3c(c2c1)C(CCl)CN3C(=O)OC(C)(C)C` (stereo not shown) [Compound 236, 3-(tert-Butyloxycarbonyl)-1-(chloromethyl)-5-hydroxy-8-methoxy-1,2-dihydro-3H-benz[e]indole] as the molecule, how does the “cytotoxic activity of seco precursor vs cyclopropane containing agent” value [3] read?
A: indistinguishable

Q: For `COc1ccc2c(c1)C13CC1CNC3=CC2=O` (stereo not shown) [Compound 240, 7-Methoxy-1,2,9,9a-tetrahydrocyclopropa[c]benz[e]indol-4-one], which “acceleration of rate of solvolysis by C7 methoxy group vs. corresponding CBI agent” value ([5]; acid-catalyzed solvolysis, pH 3) is on record?
A: 1.6 ×

Q: What about the “solvolysis rate constant k” value ([5]; pH 3, 50% CH3OH-buffer, 25° C.) of the same molecule?
A: 5.76e-07 s⁻¹

Q: What about the half-life ([5]; pH 3, 50% CH3OH-buffer, 25° C., read-out: solvolysis half-life t1/2 (converted)) of the same molecule?
A: 13.9 days

Q: And the “solvolysis reactivity relative to DSA” value ([5]; pH 3, more reactive than DSA)?
A: 6-7 ×

Q: And the “relative solvolysis reactivity (in words)” value ([5]; pH 3, vs. agent named)?
A: only slightly more reactive than CBI; also recorded: less reactive than CPI

Q: For `COc1ccc2c(O)cc3c(c2c1)C(CCl)CN3C(=O)c1cc2cc(OC)c(OC)c(OC)c2[nH]1` (stereo not shown) [Compound 252], which “cytotoxic activity of seco precursor vs cyclopropane containing agent” value [3] is on record?
A: indistinguishable

Q: For `COc1ccc2c(O)cc3c(c2c1)C(CCl)CN3C(=O)c1cc2cc(NC(=O)c3cc4ccccc4[nH]3)ccc2[nH]1` (stereo not shown) [Compound 256], which “cytotoxic activity of seco precursor vs cyclopropane containing agent” value [3] is on record?
A: indistinguishable

Q: What does the source list for `COc1ccc2c(c1)C13CC1CN(C(=O)c1cc4cc(NC(=O)c5cc6ccccc6[nH]5)ccc4[nH]1)C3=CC2=O` (stereo not shown) [Compound 258]?
A: concentration of detectable DNA alkylation, unnatural enantiomers [1]: 10^-6 to 10^-7 M; cytotoxic potency of natural enantiomer relative to unnatural enantiomer [3]: 1-3 ×; enantiomer distinction (in words) [3]: nearly equipotent

Q: For `COc1ccc2c(O)cc3c(c2c1)C(CCl)CN3C(=O)c1cc2c3c(ccc2[nH]1)N(C(N)=O)CC3` (stereo not shown) [Compound 260], which “cytotoxic activity of seco precursor vs cyclopropane containing agent” value [3] is on record?
A: indistinguishable

Q: Which “AT-rich alkylation selectivity, size of site, natural enantiomers” value [2] does the source give for `COc1ccc2c(c1)C13CC1CN(C(=O)c1cc4c5c(ccc4[nH]1)N(C(N)=O)CC5)C3=CC2=O` (stereo not shown) [Compound 262] here?
A: 3.5 base-pair

Q: What about the “cytotoxic potency of natural enantiomer relative to unnatural enantiomer” value [3] of the same molecule?
A: 1-3 ×

Q: What about the “enantiomer distinction (in words)” value [3] of the same molecule?
A: essentially indistinguishable

Q: What about the “enantiomer distinction (in words)” value ([3]; listed as MCBI-CDPI1) of the same molecule?
A: nearly equipotent

Q: For `COc1ccc2c(O)cc3c(c2c1)C(CCl)CN3C(=O)c1cc2c3c(ccc2[nH]1)N(C(=O)c1cc2c4c(ccc2[nH]1)N(C(N)=O)CC4)CC3` (stereo not shown) [Compound 264], which “cytotoxic activity of seco precursor vs cyclopropane containing agent” value [3] is on record?
A: indistinguishable

Q: What does the source list for `COc1ccc2c(c1)C13CC1CN(C(=O)c1cc4c5c(ccc4[nH]1)N(C(=O)c1cc4c6c(ccc4[nH]1)N(C(N)=O)CC6)CC5)C3=CC2=O` (stereo not shown) [Compound 266]?
A: concentration of detectable DNA alkylation, unnatural enantiomers [1]: 10^-6 to 10^-7 M; cytotoxic potency of natural enantiomer relative to unnatural enantiomer [3]: 1-3 ×; enantiomer distinction (in words) [3]: essentially indistinguishable; enantiomer distinction (in words) ([3]; listed as MCBI-CDPI2): nearly equipotent

Q: For `CC(C)(C)OC(=O)N1CC2CC23C1=CC(=O)c1ccccc13` (stereo not shown) [N-BOC-CBI], which “solvolysis half-life t1/2 of comparison agents” value [4] is on record?
A: 5.54 days

Q: With `Cc1c[nH]c2c1C13CC1CN(C(=O)OC(C)(C)C)C3=CC2=O` (stereo not shown) [N-BOC-CPI] as the molecule, how does the “solvolysis half-life t1/2 of comparison agents” value [4] read?
A: 1.53 days

Q: Which “selectivity and efficiency of DNA alkylation, unnatural enantiomers compared” value ([1]; 37° C.) does the source give for `COc1c(O)c2c(c3cc(C(=O)N4CCc5c4c(O)c(OC)c4[nH]c(C(=O)N6CC7CC78C6=CC(=O)c6[nH]cc(C)c68)cc54)[nH]c13)CCN2C(N)=O` (stereo not drawn) [ent-(-)-CC-1065, reference compound] here?
A: nearly indistinguishable
